SMILES strings stand for the structures.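 Compound exposure: 48 hours, 5 concentrations, 96-well plates. At the GI50, growth is halved. The concentration for full growth arrest is given as TGI.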 Some results are limits rather than exact numbers.

Holding throughout (test): NCI tumour cell line growth inhibition, 48 h
In assay [1] the test system is ACHN renal.
In assay [2] the test system is SK-OV-3 ovarian.
Assay [3] concerns HOP-92 NSCLC.
In assay [4] the test system is SW-620 colon.
For assay [5], the system named is SF-539 CNS.
In assay [6] the test system is OVCAR-3 ovarian.
Assay [7] relates to COLO 205 colon.
Assay [8] relates to DMS 273 small cell lung.
In assay [9] the test system is SNB-19 CNS.
Assay [10] relates to SK-MEL-2 melanoma.

As for `CC(C)(C)C([O-])=C1C(=O)c2ccccc2C1=O.CC(C)(C)C([O-])=C1C(=O)c2ccccc2C1=O.CC[O-].CC[O-].[Ti+4]`, the GI50 in assay [1] was 35.2 µM; in [2] it was 39.9 µM; in assay [3] it was 26.9 µM; in assay [4], 25.5 µM; in [5], 50.8 µM; in assay [6], 27.9 µM. Besides, the GI50 in assay [7] was 22.7 µM; in [8], 31.2 µM; in assay [9], 40.8 µM; in [10] it was 25.8 µM. Besides, the TGI was greater than 100 µM in assay [1]; greater than 100 µM in assay [2]; greater than 100 µM in assay [3]; greater than 100 µM in [4]; greater than 100 µM in assay [5]; 91.4 µM in assay [6]. In addition, the TGI is 44.7 µM in assay [7], greater than 100 µM in [8], greater than 100 µM in [9] and 85.2 µM in [10].
As for `Cc1c2ncccc2c(C)c2c1[nH]c1ccccc12`, the TGI in assay [1] was 26.5 µM; in [2], 31.3 µM; in assay [3], 25.3 µM; in assay [4], 28 µM; in assay [5], 26 µM; in assay [6] it was 28.3 µM. Moreover, the TGI in [7] was 26.9 µM; in assay [8], 19 µM; in [9], 26.7 µM; in assay [10] it was 41.4 µM.

The record behind these values is PubChem BioAssay (NCI).
